Reference: patent US20240425479A1, “HALO-SUBSTITUTED AMINO AZA-HETEROARYL COMPOUNDS AS INHIBITORS OF THE HAEMATOPOIETIC PROGENITOR KINASE 1 (HPK1)” (priority 2021, published 2024)

Target: T1, Recombinant (1-346) HPK1 (h) (Homo sapiens, UniProt Q92918)
T1 construct: Recombinant (1-346) HPK1 (h) is incubated with 8 mM MOPS pH 7.0
T1 sequence (Q92918 1-346): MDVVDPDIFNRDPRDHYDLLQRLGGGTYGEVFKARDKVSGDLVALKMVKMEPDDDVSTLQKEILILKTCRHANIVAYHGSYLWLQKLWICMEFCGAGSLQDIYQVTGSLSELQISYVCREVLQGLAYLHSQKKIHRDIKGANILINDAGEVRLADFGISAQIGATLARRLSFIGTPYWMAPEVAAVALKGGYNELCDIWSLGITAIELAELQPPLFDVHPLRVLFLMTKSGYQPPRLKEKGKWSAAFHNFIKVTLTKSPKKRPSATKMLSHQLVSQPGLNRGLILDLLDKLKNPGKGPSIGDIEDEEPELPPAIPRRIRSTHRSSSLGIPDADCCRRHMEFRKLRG
Experiment: HPK1 human STE kinase enzymatic radiometric assay
Type: biochemical
Conditions: read-out: HPK1 IC50 nM Range
In short: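 Compounds in 3-fold, 9-point serial dilution; kinase (residues 1-346) phosphorylates myelin basic protein (0.33 mg/mL) using [gamma-33P]-ATP at pH 7.0 (MOPS, EDTA, Mg acetate) for 40 min, room temperature. Acid-quenched mixture filtered onto P30 mats; incorporated radioactivity read by scintillation counting.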

| SMILES | IC50 |
| --- | --- |
| CCN(C)Cc1cc(-c2nc(-c3cc4c(cc3F)C(=O)NCC4)c(N)nc2F)cc(C)c1OC [Example I-303, 6-(3-amino-6-(3-((ethyl(methyl)amino)methyl)-4-methoxy-5-methylphenyl)-5-fluoropyrazin-2-yl)-7-fluoro-3,4-dihydroisoquinolin-1(2H)-one] | 0.1 to 10 nM |
| Cc1cc(-c2nc(-c3ccc4c(=O)[nH]cc(F)c4c3)c(N)nc2F)cc2c1CCN(C)C2 [Example I-296, 6-(3-amino-6-(2,5-dimethyl-1,2,3,4-tetrahydroisoquinolin-7-yl)-5-fluoropyrazin-2-yl)-4-fluoroisoquinolin-1(2H)-one] | 0.1 to 10 nM |
| CCN(C)Cc1cc(-c2nc(-c3ccc4c(=O)[nH]cc(F)c4c3)c(N)nc2F)cc(C)c1OC [Example I-298, 6-(3-amino-6-(3-((ethyl(methyl)amino)methyl)-4-methoxy-5-methylphenyl)-5-fluoropyrazin-2-yl)-4-fluoroisoquinolin-1(2H)-one] | 11 to 100 nM |
| C[C@H]1CCCN1Cc1cc(-c2nc(-c3ccc4c(=O)[nH]cc(Cl)c4c3)c(N)nc2F)ccc1C1CCOCC1 [Example I-229, (S)-6-(3-amino-5-fluoro-6-(3-((2-methylpyrrolidin-1-yl)methyl)-4-(tetrahydro-2H-pyran-4-yl)phenyl)pyrazin-2-yl)-4-chloroisoquinolin-1(2H)-one] | 11 to 100 nM |
| COC1CCN(Cc2cc(-c3nc(-c4cc5c(cc4F)C(=O)NCC5)c(N)nc3F)ccc2N2CCSCC2)CC1 [Example I-127, 6-(3-amino-5-fluoro-6-(3-((4-methoxypiperidin-1-yl)methyl)-4-thiomorpholinophenyl)pyrazin-2-yl)-7-fluoro-3,4-dihydroisoquinolin-1(2H)-one] | 11 to 100 nM |
| C[C@@H]1CN(c2ccc(-c3nc(-c4ccc5c(=O)[nH]cc(F)c5c4)c(N)nc3F)cc2)C[C@H](C)N1C [Example I-93, 6-(3-amino-5-fluoro-6-(4-((3R,5S)-3,4,5-trimethylpiperazin-1-yl)phenyl)pyrazin-2-yl)-4-fluoroisoquinolin-1(2H)-one] | 0.1 to 10 nM |
| Nc1nc(F)c(-c2ccc(OC3CCOCC3)c(CN3CCC3)c2)nc1-c1cc(F)c2c(c1)CCNC2=O [Example I-210, 6-(3-amino-6-(3-(azetidin-1-ylmethyl)-4-((tetrahydro-2H-pyran-4-yl)oxy)phenyl)-5-fluoropyrazin-2-yl)-8-fluoro-3,4-dihydroisoquinolin-1(2H)-one] | 11 to 100 nM |
| COCCN(C)Cc1cc(-c2nc(-c3cc(F)c4c(c3)CCNC4=O)c(N)nc2F)ccc1C1CCOCC1 [Example I-176, 6-(3-amino-5-fluoro-6-(3-(((2-methoxyethyl)(methyl)amino)methyl)-4-(tetrahydro-2H-pyran-4-yl)phenyl)pyrazin-2-yl)-8-fluoro-3,4-dihydroisoquinolin-1(2H)-one] | 0.1 to 10 nM |
| Nc1nc(F)c(-c2ccc(N3CCOCC3)c(CN3CCCCC3)c2)nc1-c1cc(F)c2c(c1)CCNC2=O [Example I-187, 6-(3-amino-5-fluoro-6-(4-morpholino-3-(piperidin-1-ylmethyl)phenyl)pyrazin-2-yl)-8-fluoro-3,4-dihydroisoquinolin-1(2H)-one] | 11 to 100 nM |
| Cc1[nH]c(=O)c2c(F)cc(-c3nc(-c4ccc(C5CCOCC5)c(CN(C)C)c4)c(F)nc3N)cc2c1Cl [Example I-104, 6-(3-amino-6-(3-((dimethylamino)methyl)-4-(tetrahydro-2H-pyran-4-yl)phenyl)-5-fluoropyrazin-2-yl)-4-chloro-8-fluoro-3-methylisoquinolin-1(2H)-one] | 0.1 to 10 nM |
| Cc1c[nH]c(=O)c2ccc(-c3nc(-c4ccc(N5CCOCC5)c(CN5CCCC5)c4)c(F)nc3N)cc12 [Example I-203, 6-(3-amino-5-fluoro-6-(4-morpholino-3-(pyrrolidin-1-ylmethyl)phenyl)pyrazin-2-yl)-4-methylisoquinolin-1(2H)-one] | 0.1 to 10 nM |
| Cc1nc2cc(-c3nc(-c4ccc(N5C[C@@H](C)N(C)[C@@H](C)C5)cc4)c(F)nc3N)ccc2c(=O)[nH]1 [Example I-95, 7-(3-amino-5-fluoro-6-(4-((3R,5S)-3,4,5-trimethylpiperazin-1-yl)phenyl)pyrazin-2-yl)-2-methylquinazolin-4(3H)-one] | 11 to 100 nM |
| Nc1nc(F)c(-c2ccc(N3CCN(CCCC(F)F)CC3)cc2)nc1-c1ccc2c(=O)[nH]cc(F)c2c1 [Example I-136, 6-(3-amino-6-(4-(4-(4,4-difluorobutyl)piperazin-1-yl)phenyl)-5-fluoropyrazin-2-yl)-4-fluoroisoquinolin-1(2H)-one] | 0.1 to 10 nM |

The remaining lines, values ahead:

| IC50 | SMILES |
| --- | --- |
| 0.1 to 10 nM | CO[C@H]1CCN(Cc2cc(-c3nc(-c4cc(F)c5c(c4)CCNC5=O)c(N)nc3F)ccc2N2CCOCC2)C1 [Example I-158, (S)-6-(3-amino-5-fluoro-6-(3-((3-methoxypyrrolidin-1-yl)methyl)-4-morpholinophenyl)pyrazin-2-yl)-8-fluoro-3,4-dihydroisoquinolin-1(2H)-one] |
| 0.1 to 10 nM | CN(C)Cc1cc(-c2nc(-c3ccc4c(=O)[nH]cc(Cl)c4c3)c(N)nc2F)ccc1N1CCOCC1 [Example I-153, 6-(3-amino-6-(3-((dimethylamino)methyl)-4-morpholinophenyl)-5-fluoropyrazin-2-yl)-4-chloroisoquinolin-1(2H)-one] |
| 11 to 100 nM | COC1CCN(Cc2cc(-c3nc(-c4ccc5c(c4)CCNC5=O)c(N)nc3F)ccc2N2CCSCC2)CC1 [Example I-126, 6-(3-amino-5-fluoro-6-(3-((4-methoxypiperidin-1-yl)methyl)-4-thiomorpholinophenyl)pyrazin-2-yl)-3,4-dihydroisoquinolin-1(2H)-one] |
| 11 to 100 nM | Cc1c[nH]c(=O)c2ccc(-c3nc(-c4ccc(F)c(CN(C)C)c4)c(F)nc3N)cc12 [Example I-275, 6-(3-amino-6-(3-((dimethylamino)methyl)-4-fluorophenyl)-5-fluoropyrazin-2-yl)-4-methylisoquinolin-1(2H)-one] |
| 0.1 to 10 nM | COC1CCN(Cc2cc(-c3nc(-c4cc5c(cc4F)C(=O)NCC5)c(N)nc3F)ccc2N2CCOCC2)C1 (stereo not drawn) [Example I-134, 6-(3-amino-5-fluoro-6-(3-((3-methoxypyrrolidin-1-yl)methyl)-4-morpholinophenyl)pyrazin-2-yl)-7-fluoro-3,4-dihydroisoquinolin-1(2H)-one] |
| 0.1 to 10 nM | CC(C)N1CCN(c2ccc(-c3nc(-c4ccc5c(c4)CCNC5=O)c(N)nc3F)cc2)[C@H](C)C1 [Example I-50, (R)-6-(3-amino-5-fluoro-6-(4-(4-isopropyl-2-methylpiperazin-1-yl)phenyl)pyrazin-2-yl)-3,4-dihydroisoquinolin-1(2H)-one] |
| 11 to 100 nM | CN(C)Cc1cc(-c2nc(-c3ccc4c(c3)CCNC4=O)c(N)nc2F)ccc1F [Example I-272, 6-(3-amino-6-(3-((dimethylamino)methyl)-4-fluorophenyl)-5-fluoropyrazin-2-yl)-3,4-dihydroisoquinolin-1(2H)-one] |
| 0.1 to 10 nM | Cc1c[nH]c(=O)c2ccc(-c3nc(-c4cc(F)c(N5CCOCC5)c(CN(C)C)c4)c(F)nc3N)cc12 [Example I-266, 6-(3-amino-6-(3-((dimethylamino)methyl)-5-fluoro-4-morpholinophenyl)-5-fluoropyrazin-2-yl)-4-methylisoquinolin-1(2H)-one] |
| 0.1 to 10 nM | COc1ccc(-c2nc(-c3ccc4c(c3)CCNC4=O)c(N)nc2F)cc1C(C)N(C)C (stereo not drawn) [Example I-290, 6-(3-amino-6-(3-(1-(dimethylamino)ethyl)-4-methoxyphenyl)-5-fluoropyrazin-2-yl)-3,4-dihydroisoquinolin-1(2H)-one] |
| 11 to 100 nM | CN(C)Cc1cccc(-c2nc(-c3cc(F)c4c(c3)CCNC4=O)c(N)nc2F)c1 [Example I-279, 6-(3-amino-6-(3-((dimethylamino)methyl)phenyl)-5-fluoropyrazin-2-yl)-8-fluoro-3,4-dihydroisoquinolin-1(2H)-one] |
| 0.1 to 10 nM | Nc1nc(F)c(-c2ccc(N3CCOCC3)c(CN3CCC3)c2)nc1-c1ccc2c(c1)CCNC2=O [Example I-144, 6-(3-amino-6-(3-(azetidin-1-ylmethyl)-4-morpholinophenyl)-5-fluoropyrazin-2-yl)-3,4-dihydroisoquinolin-1(2H)-one] |
| 0.1 to 10 nM | C[C@@H]1CN(c2ccc(-c3nc(-c4cc(F)c5c(c4)CCNC5=O)c(N)nc3F)cc2CN(C)C)C[C@H](C)O1 [Example I-197, 6-(3-amino-6-(3-((dimethylamino)methyl)-4-((2R,6S)-2,6-dimethylmorpholino)phenyl)-5-fluoropyrazin-2-yl)-8-fluoro-3,4-dihydroisoquinolin-1(2H)-one] |
| 0.1 to 10 nM | COC1CN(Cc2cc(-c3nc(-c4ccc5c(c4)CCNC5=O)c(N)nc3F)ccc2C2CCOCC2)C1 [Example I-193, 6-(3-amino-5-fluoro-6-(3-((3-methoxyazetidin-1-yl)methyl)-4-(tetrahydro-2H-pyran-4-yl)phenyl)pyrazin-2-yl)-3,4-dihydroisoquinolin-1(2H)-one] |
| 0.1 to 10 nM | C[C@H]1CN(c2ccc(-c3nc(-c4ccc5c(c4)CCNC5=O)c(N)nc3F)cc2CN(C)C)CCO1 [Example I-211, (S)-6-(3-amino-6-(3-((dimethylamino)methyl)-4-(2-methylmorpholino)phenyl)-5-fluoropyrazin-2-yl)-3,4-dihydroisoquinolin-1(2H)-one] |
